From patent US5641520A, “Halogen compositions for water treatment” (priority 1995, dated 1997) come the findings set out here.

A short description of this series: Water solubility of solid halogenated hydantoins and halogen dissolved in a saturated solution. The series is classed as physicochemical. Particulars: Table II; for Saturated Solution, amount of halogen dissolved: saturated solution in water.

With `CC1(C)C(=O)N(Br)C(=O)N1Br` [Dibromodimethylhydantion, 1,3-dibromo-5,5-dimethylhydantoin], the “Saturated Solution, amount of halogen dissolved” value is 542 mg/L as Cl2.
Regarding `CC1(C)C(=O)N(Cl)C(=O)N1Br` [Bromo-chlorodimethylhydantoin, bromochlorodimethylhydantoin], the “Saturated Solution, amount of halogen dissolved” value was 825 mg/L as Cl2. Under “water”, this compound showed a Solubility of 0.15%.
